Experimental data taken from patent publication US20200385371A1 (Propellon Therapeutics Inc., priority 2017, published 2020).

Experiments:
WDR5 [1] = target: T1, WDR5 (Homo sapiens, UniProt P61964); assay: Fluorescence Polarization (FP) binding assay
How it was run: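 Buffer was pH 6.5 sodium phosphate (80 mM) with 20 mM KCl and 0.008% Triton X-100; 9-Ala-FAM probe at 20 nM used 0.05 μM WDR5 and 480/540 nm polarization, H3 (1-15) probe at 30 nM used 0.3 μM WDR5 and 485/528 nm. Quadruplicate data were hyperbola-fitted to give Kdisp.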

MV4-11 cells = assay: Cell proliferation assay (ATPlite); type: cell-based; conditions: Homo sapiens, 120 h; MV4-11 cells, five days; read-out: GI MV411 EC50
How it was run: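 ATPlite luminescence after five days' culture (37° C, 5% CO2) gives viability. Compounds dosed in 10 concentrations up to 10 μM against DMSO; 1,000 cells/well seeded in Alpha-MEM/10% FBS.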

WDR5 [2] = target: T1, WDR5; assay: Surface Plasmon Resonance (SPR) assay; type: binding; set-up: Full length WDR5 with an N-terminal His tag and C-terminal AviTag; His tag (N); made in house; host or cells: E. coli; conditions: read-out: SPR Kd
How it was run: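 Full-length biotinylated WDR5 (N-His, C-AviTag, E. coli) captured (~3000 RU) on streptavidin SA chip; Biacore T200. HBS-EP pH 7.4 plus 5% DMSO running buffer, 40 μl/min.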

| Structure (SMILES) | IC50 (WDR5 [1]) [nM] | EC50 (MV4-11 cells) [nM] | Kd (WDR5 [2]) [nM] |
| --- | --- | --- | --- |
| C[C@H]1CN(c2cc(F)c(C3=CCCN(c4ncc(F)cn4)C3)c(F)c2NC(=O)c2c[nH]c(=O)cc2C(F)F)CCN1C [Example 83, (S)-4-(difluoromethyl)-N-(6-(3,4-dimethylpiperazin-1-yl)-2,4-difluoro-3-(1-(5-fluoropyrimidin-2-yl)-1,2,5,6-tetrahydropyridin-3-yl)phenyl)-6-oxo-1,6-dihydropyridine-3-carboxamide] | 15.5 | 382 | 1.15 |
| C[C@H]1CN(c2cc(F)c(C3=CCCN(c4ncc(F)cn4)C3)c(F)c2NC(=O)c2c[nH]c(=O)cc2C(F)(F)F)CCN1C [Example 84, (S)—N-(6-(3,4-dimethylpiperazin-1-yl)-2,4-difluoro-3-(1-(5-fluoropyrimidin-2-yl)-1,2,5,6-tetrahydropyridin-3-yl)phenyl)-6-oxo-4-(trifluoromethyl)-1,6-dihydropyridine-3-carboxamide] | 16.4 | 162 | 1.43 |
| C[C@H]1CN(c2cc(F)c(C3=CCN(c4ncc(F)cn4)C3)c(F)c2NC(=O)c2c[nH]c(=O)cc2C(F)F)CCN1C [Example 91, (S)-4-(difluoromethyl)-N-(6-(3,4-dimethylpiperazin-1-yl)-2,4-difluoro-3-(1-(5-fluoropyrimidin-2-yl)-2,5-dihydro-1H-pyrrol-3-yl)phenyl)-6-oxo-1,6-dihydropyridine-3-carboxamide] | 16 | 38.3 | 1.55 |
| C[C@H]1CN(c2cc(F)c(C3=CCN(C(=O)OC4(C)CCC4)CC3)c(F)c2NC(=O)c2c[nH]c(=O)cc2C(F)F)CCN1C [Example 92, 1-Methylcyclobutyl(S)-4-(3-(4-(difluoromethyl)-6-oxo-1,6-dihydropyridine-3-carboxamido)-4-(3,4-dimethylpiperazin-1-yl)-2,6-difluorophenyl)-3,6-dihydropyridine-1(2H)-carboxylate] | 15.6 | 22.8 | 2.79 |
| C[C@H]1CN(c2cc(F)c(C3=CCN(C(=O)OC4(C)CCC4)CC3)c(F)c2NC(=O)c2c[nH]c(=O)cc2C(F)(F)F)CCN1C [Example 93, 1-Methylcyclobutyl(S)-4-(4-(3,4-dimethylpiperazin-1-yl)-2,6-difluoro-3-(6-oxo-4-(trifluoromethyl)-1,6-dihydropyridine-3-carboxamido)phenyl)-3,6-dihydropyridine-1(2H)-carboxylate] | 15.4 | 19.4 | 2.15 |
| C[C@H]1CN(c2cc(F)c(C3=CCCN(C(=O)OC4(C)CCC4)C3)c(F)c2NC(=O)c2c[nH]c(=O)cc2C(F)F)CCN1C [Example 94, 1-Methylcyclobutyl (S)-5-(3-(4-(difluoromethyl)-6-oxo-1,6-dihydropyridine-3-carboxamido)-4-(3,4-dimethylpiperazin-1-yl)-2,6-difluorophenyl)-3,6-dihydropyridine-1(2H)-carboxylate] | 17.4 | 93.9 | 2.17 |
| C[C@H]1CN(c2cc(F)c(C3=CCN(c4ncc(C#N)s4)C3)c(F)c2NC(=O)c2c[nH]c(=O)cc2C(F)F)CCN1C [Example 95, (S)—N-(3-(1-(5-cyanothiazol-2-yl)-2,5-dihydro-1H-pyrrol-3-yl)-6-(3,4-dimethylpiperazin-1-yl)-2,4-difluorophenyl)-4-(difluoromethyl)-6-oxo-1,6-dihydropyridine-3-carboxamide] | 13.8 | 96.4 | 0.79 |
| C[C@H]1CN(c2cc(F)c(C3=CCN(c4ncc(C#N)s4)C3)c(F)c2NC(=O)c2c[nH]c(=O)cc2C(F)(F)F)CCN1C [Example 96, (S)—N-(3-(1-(5-cyanothiazol-2-yl)-2,5-dihydro-1H-pyrrol-3-yl)-6-(3,4-dimethylpiperazin-1-yl)-2,4-difluorophenyl)-6-oxo-4-(trifluoromethyl)-1,6-dihydropyridine-3-carboxamide] | 11.9 | 70.1 | 0.51 |
| C[C@H]1CN(c2cc(F)c(C3=CCN(c4ncc(C#N)s4)CC3)c(F)c2NC(=O)c2c[nH]c(=O)cc2C(F)F)CCN1C [Example 97, (S)—N-(3-(1-(5-cyanothiazol-2-yl)-1,2,3,6-tetrahydropyridin-4-yl)-6-(3,4-dimethylpiperazin-1-yl)-2,4-difluorophenyl)-4-(difluoromethyl)-6-oxo-1,6-dihydropyridine-3-carboxamide] | 13.6 | 138 | 0.78 |
| C[C@H]1CN(c2cc(F)c(C3=CCN(c4ncc(C#N)s4)CC3)c(F)c2NC(=O)c2c[nH]c(=O)cc2C(F)(F)F)CCN1C [Example 98, (S)—N-(3-(1-(5-cyanothiazol-2-yl)-1,2,3,6-tetrahydropyridin-4-yl)-6-(3,4-dimethylpiperazin-1-yl)-2,4-difluorophenyl)-6-oxo-4-(trifluoromethyl)-1,6-dihydropyridine-3-carboxamide] | 13.1 | 97.7 | 0.77 |
| C[C@H]1CN(c2cc(F)c(C3=CCCN(c4ncc(C#N)s4)C3)c(F)c2NC(=O)c2c[nH]c(=O)cc2C(F)F)CCN1C [Example 99, (S)—N-(3-(1-(5-cyanothiazol-2-yl)-1,2,5,6-tetrahydropyridin-3-yl)-6-(3,4-dimethylpiperazin-1-yl)-2,4-difluorophenyl)-4-(difluoromethyl)-6-oxo-1,6-dihydropyridine-3-carboxamide] | 14.7 | 169 | 1.62 |
| C[C@H]1CN(c2cc(F)c(C3=CCCN(c4ncc(C#N)s4)C3)c(F)c2NC(=O)c2c[nH]c(=O)cc2C(F)(F)F)CCN1C [Example 100, (S)—N-(3-(1-(5-cyanothiazol-2-yl)-1,2,5,6-tetrahydropyridin-3-yl)-6-(3,4-dimethylpiperazin-1-yl)-2,4-difluorophenyl)-6-oxo-4-(trifluoromethyl)-1,6-dihydropyridine-3-carboxamide] | 11.9 | 181 | 1.45 |

Second part, the compound after the results:

| IC50 (WDR5 [1]) [nM] | EC50 (MV4-11 cells) [nM] | Kd (WDR5 [2]) [nM] | Structure (SMILES) |
| --- | --- | --- | --- |
| 13.8 | 10.3 | 1.24 | C[C@@H]1CN(c2ncc(-c3c(F)cc(N4CCN(C)[C@@H](C)C4)c(NC(=O)c4c[nH]c(=O)cc4C(F)(F)F)c3F)cn2)C[C@@H](C)O1 [Example 85, N-(3-(2-((2R,6R)-2,6-dimethylmorpholino)pyrimidin-5-yl)-6-((S)-3,4-dimethylpiperazin-1-yl)-2,4-difluorophenyl)-6-oxo-4-(trifluoromethyl)-1,6-dihydropyridine-3-carboxamide] |
| 13.1 | 10.5 | 0.88 | C[C@@H]1CN(c2ncc(-c3c(F)cc(N4C[C@@H](C)N(C)[C@@H](C)C4)c(NC(=O)c4c[nH]c(=O)cc4C(F)(F)F)c3F)cn2)C[C@@H](C)O1 [Example 86, N-(3-(2-((2R,6R)-2,6-dimethylmorpholino)pyrimidin-5-yl)-2,4-difluoro-6-((3S,5R)-3,4,5-trimethylpiperazin-1-yl)phenyl)-6-oxo-4-(trifluoromethyl)-1,6-dihydropyridine-3-carboxamide] |
| 9.85 | 19.4 | 1.47 | C[C@H]1CN(c2ncc(-c3c(F)cc(N4CCN(C)[C@@H](C)C4)c(NC(=O)c4c[nH]c(=O)cc4C(F)(F)F)c3F)cn2)C[C@H](C)O1 [Example 87, N-(3-(2-((2S,6S)-2,6-dimethylmorpholino)pyrimidin-5-yl)-6-((S)-3,4-dimethylpiperazin-1-yl)-2,4-difluorophenyl)-6-oxo-4-(trifluoromethyl)-1,6-dihydropyridine-3-carboxamide] |
| 13.8 | 9.55 | 2.49 | C[C@@H]1CN(c2cc(F)c(-c3cnc(N4C[C@H](C)O[C@@H](C)C4)nc3)c(F)c2NC(=O)c2c[nH]c(=O)cc2C(F)(F)F)C[C@H](C)N1C [Example 88, N-(3-(2-((2S,6S)-2,6-dimethylmorpholino)pyrimidin-5-yl)-2,4-difluoro-6-((3S,5R)-3,4,5-trimethylpiperazin-1-yl)phenyl)-6-oxo-4-(trifluoromethyl)-1,6-dihydropyridine-3-carboxamide] |
| 12.5 | 30.8 | 0.83 | C[C@H]1CN(c2cc(F)c(-c3cnc(N4C[C@H]5CC[C@@H](C4)O5)nc3)c(F)c2NC(=O)c2c[nH]c(=O)cc2C(F)(F)F)CCN1C [Example 89, N-(3-(2-((1R,5S)-8-oxa-3-azabicyclo[3.2.1]octan-3-yl)pyrimidin-5-yl)-6-((S)-3,4-dimethylpiperazin-1-yl)-2,4-difluorophenyl)-6-oxo-4-(trifluoromethyl)-1,6-dihydropyridine-3-carboxamide] |
| 15 | 29.9 | 0.89 | C[C@@H]1CN(c2cc(F)c(-c3cnc(N4C[C@H]5CC[C@@H](C4)O5)nc3)c(F)c2NC(=O)c2c[nH]c(=O)cc2C(F)(F)F)C[C@H](C)N1C [Example 90, N-(3-(2-((R,5S)-8-oxa-3-azabicyclo[3.2.1]octan-3-yl)pyrimidin-5-yl)-2,4-difluoro-6-((3S,5R)-3,4,5-trimethylpiperazin-1-yl)phenyl)-6-oxo-4-(trifluoromethyl)-1,6-dihydropyridine-3-carboxamide] |
